{"source": "patent US20210371784A1", "about": "“CELL-CONTAINING VESSEL AND METHOD FOR PRODUCING NEURAL CELL-CONTAINING SPHEROID” (RICOH COMPANY, LTD., priority 2020, published 2021)", "test_system": "spheroids of human iPSC-derived neurons and human iPSC-derived astrocytes", "test": "Calcium transient assay of neural cell-containing spheroids in the presence of a drug", "assay_type": "cell-based", "settings": "4-AP final concentration 30 μM, 10-minute period immediately following the addition, spheroids cultured 7 weeks", "description": "Spheroids were produced using human iPSC-derived neurons and human iPSC-derived astrocytes, and the drug responsiveness was investigated. First, human iPSC-derived neurons (mixed neurons, manufactured by Elixirgen Scientific, Inc.) and human iPSC-derived astrocytes (Human iPS-derived Astrocytes (mature), manufactured by Xcell Science Inc.) were mixed so as to achieve cell numbers per well that satisfied the cell numbers indicated below in Table 3 for test numbers 3-1 and 3-2. Subsequently, each cell mixture was inoculated onto a spheroid production plate and cultured to produce a spheroid. […]\nSubsequently, following culturing for 7 weeks, each of the spheroids was subjected to a calcium transient assay in the presence of a drug. […] In the calcium transient assays, excessive excitation of the neurons was detected as an increase in oscillation frequency or an elevated baseline.\nSpecifically, first, each spheroid was transferred to a measurement plate, a calcium-sensitive fluorescent dye (EarlyTox Cardiotoxicity Kit, manufactured by Molecular Devices, LLC) was added to the medium, and the mixture was incubated. Subsequently, 4-AP was added to the medium in an amount sufficient to achieve a final concentration of 30 μM, and fluorescence measurements were conducted at 0.6-second intervals for the 10-minute period immediately following the addition. […]"}
{"smiles": "Nc1ccncc1", "note": "[4-AP, 4-aminopyridine]", "values": [{"measurement": "change in the waveform of the oscillations (drug responsiveness)", "setting": "test number 3-1, cell number ratio (neurons:astrocytes) 1:1", "result": "the expected type of change in the waveform of the oscillations was confirmed"}, {"measurement": "change in the waveform of the oscillations (drug responsiveness)", "setting": "test number 3-2, cell number ratio (neurons:astrocytes) 4:1", "result": "the expected type of change in the waveform of the oscillations could not be confirmed"}]}
